Format in all cases: in vivo
The test system of series [1] is Subterranean Termite (Reticulitermes flavipes). The experiment in a line: Continuous exposure (56 days) to treated paper. From the text:
(§1) Subterranean Termite (Reticulitermes flavipes)
Continuous exposure (56 days) to treated paper Rates: 0.78, 3.12, 12.5, 50, 200 ppm

The test system of series [2] is Pharaoh Ant (Monomorium pharaonis). The experiment in a line: Laboratory ant bait study, 3-4 day exposure to bait, brood reduction. Conditions: concentration tested 0.1%. As for the experimental part:
(§2) Laboratory ant bait studies were carried out with Red Imported Fire Ant (RIFA) (Solenopsis invicta) and Pharaoh Ant (Monomorium pharaonis). Chitin synthesis inhibitors, such as the compounds of the invention, control ants by killing the molting larvae and/or pupae and potentially preventing the hatching of eggs. Because adult workers are not affected, control is measured by effects on the brood. The studies involved 3-4 day exposure to bait. These limited exposure studies more accurately represent real world bait availability than continuous exposure.

In series [3] the test system is Red Imported Fire Ant (RIFA) (Solenopsis invicta). The description is as above. As for the experimental part: as §2
Series [4] concerns Daphnia. As to the kind of experiment: Activity against Daphnia, 48 hr exposure to treated water. An excerpt:
48 hr exposure to treated water

The test system of series [5] is Subterranean Termite (Reticulitermes flavipes). The experiment in a line: Limited exposure (7 days), mortality determined at 14, 28, 42 and 56 days.
Text: as §1
Limited exposure (7 days) with mortality determined at 14, 28, 42, and 56 […]

For series [6], the system named is German cockroach 2nd instars (Blattella germanica). As to the kind of experiment: Continuous, low-dose ingestion exposure (treated cornmeal).
The test system is the same in series [7]. As to the kind of experiment: Limited ingestion exposure (48 hr) to treated cornmeal. From the text:
German cockroach 2nd instars (Blattella germanica)
Limited ingestion exposure (48 hr) to treated cornmeal Rates: 1, 10, 100, 1000, 10000 ppm

Series [8] has as its system Cat Flea (Ctenocephalides fells). The experiment in a line: Continuous exposure of larvae to treated media, impact on subsequent adult emergence. From the text:
Cat Flea (Ctenocephalides fells)
Continuous exposure of larvae to treated media, impact on subsequent adult emergence Rates: 0.1, 1.0, 10, 100, 1000 ppm

As for `O=C(NC(=O)c1c(F)cccc1F)Nc1cc(Cl)c(OC(F)(F)C(F)C(F)(F)F)c(Cl)c1F` (stereo not drawn) [Compound 1], in series [1], the “LT50 (days) for 200 ppm trt” value is reported as 27.6 days, the “LC50 (ppm) 35 days” value was 31.2 ppm and the “LC50 (ppm) 56 days” value is listed as under 0.78 ppm. The “Time to Achieve 50% Brood Reduction” value in series [2] (3-4 day exposure to bait) worked out at 4 wks. Further, the “Percent brood reduction achieved at end of study” value in series [2] (at 13 wks) turned out to be 70%. Further, in series [3] (concentration tested 0.1%), the “Time to Achieve 50% Brood Reduction” value is recorded as 2 wks and the “Time to Achieve 90% Brood Reduction” value was 3 wks. Besides, the “LC50 (ppb) in water” value in series [4] is 5.0 ppb. Further, in series [5], the “LT50 (days) for 10000 ppm treatment” value amounted to 23.7 days. In series [6], the “LC50 (ppm) 21 days” value is under 2.2 ppm and the “LC50 (ppm) 42 days” value was under 0.78 ppm. In series [7], the “LC50 (ppm) 21 days” value is recorded as under 22.2 ppm and the “LC50 (ppm) 42 days” value is under 9.1 ppm. Also, in series [8], the “LC50 (ppm)” value was determined as 2.8 ppm and the “LC90 (ppm)” value is 22 ppm.

As to `CCN(C(=O)NC(=O)c1c(F)cccc1F)c1cc(Cl)c(OC(F)(F)C(F)C(F)(F)F)c(Cl)c1F` (stereo not drawn) [Compound 2, N-[3,5-Dichloro-2-fluoro-4-(1,1,2,3,3,3-hexafluoropropoxy)phenyl]-N'-(2,6-difluorobenzoyl)-N-ethylurea], in series [1], the “LC50 (ppm) 35 days” value is reported as under 0.78 ppm and the “LC50 (ppm) 56 days” value is reported as under 0.78 ppm. Further, in series [6], the “LC50 (ppm) 21 days” value was 0.35 ppm and the “LC50 (ppm) 42 days” value is 0.26 ppm. Moreover, in series [7], the “LC50 (ppm) 21 days” value worked out at 21.1 ppm and the “LC50 (ppm) 42 days” value stood at 12.8 ppm. Also, in series [8], the “LC50 (ppm)” value came to 12.7 ppm and the “LC90 (ppm)” value was 18.6 ppm.

Take `CCN(C(=O)Nc1cc(Cl)c(OC(F)(F)C(F)C(F)(F)F)c(Cl)c1F)C(=O)c1c(F)cccc1F` (stereo not drawn) [Compound 3, N-[3,5-Dichloro-2-fluoro-4-(1,1,2,3,3,3-hexafluoropropoxy)phenyl]-N'-(2,6-difluorobenzoyl)-N'-ethyl urea]: the “LC50 (ppb) in water” value in series [4] is recorded as over 100 ppb. In series [6], the “LC50 (ppm) 21 days” value is recorded as 8.0 ppm and the “LC50 (ppm) 42 days” value was found to be 1.5 ppm.

With `O=C(NC(=O)c1c(F)cccc1F)Nc1cc(Cl)c(OC(F)(F)C(F)F)c(Cl)c1` [hexaflumuron, reference compound], in series [1], the “LT50 (days) for 200 ppm trt” value turned out to be 33.8 days, the “LC50 (ppm) 35 days” value is over 200 ppm and the “LC50 (ppm) 56 days” value is recorded as 1.3 ppm. In series [3] (concentration tested 0.25%), the “Time to Achieve 50% Brood Reduction” value was found to be 4 wks and the “Time to Achieve 90% Brood Reduction” value came out at 10 wks. For the same molecule, the “LC50 (ppb) in water” value in series [4] is 68.1 ppb. Also, the “LT50 (days) for 10000 ppm treatment” value in series [5] amounted to 32.9 days. Further, in series [6], the “LC50 (ppm) 21 days” value is over 200 ppm and the “LC50 (ppm) 42 days” value is recorded as over 200 ppm. For the same molecule, in series [7], the “LC50 (ppm) 21 days” value is > 10,000 ppm and the “LC50 (ppm) 42 days” value is > 10,000 ppm. Further, in series [8], the “LC50 (ppm)” value came to 65.7 ppm and the “LC90 (ppm)” value was determined as 333.5 ppm.

(Values after patent publication EP0936867B1, “BENZOYLPHENYLUREA INSECTICIDES AND METHODS OF USING CERTAIN BENZOYLPHENYLUREAS TO CONTROL COCKROACHES, ANTS, FLEAS, AND TERMITES” (Dow AgroSciences LLC, priority 1996, dated 1998).)
